Assay results as given in patent US12616666B2, “Coenzyme Q10 formulations in the treatment and prevention of epidermolysis bullosa” (BPGbio, Inc., priority 2017, dated 2026).

What was measured:
[1] = tested on: melanoma (SK-MEL-28) cell line; experiment: Cell proliferation with increasing Coenzyme Q10 concentration; format: cell-based; conditions: SK-MEL-28, increasing concentration (FIG. 1)
From the text: (§1) When applied topically to melanoma tumors in nude mice, a 1.0% CoQ10 formulation inhibited growth and angiogenesis. The mechanism involves the shifting of the cellular bioenergetics from cytoplasmic glycolysis towards mitochondrial oxidative phosphorylation (AACR 2011). The shift in cellular metabolic pathways in cancer including SCC and melanoma results in the recapitulation of the p53 regulated apoptotic potential by re-establishing the balance of pro-apoptic Bcl-2/Bax ratios in a manner conducive for cell death.

[2] = tested on: normal human keratinocytes; experiment: as above; format: cell-based; conditions: increasing concentration (FIG. 1)
From the text: as §1

[3] = tested on: squamous cell carcinoma (SCC-25) cell line; experiment: as above; format: cell-based; conditions: SCC-25, increasing concentration (FIG. 1)
From the text: as §1

adult fibroblasts = experiment: as above; format: cell-based, human; conditions: normal fibroblasts, increasing concentration (FIG. 1)
From the text: as §1

SK-MEL-28 melanoma cells = experiment: Western Blot of protein expression; format: cell-based
Experimental: FIG. 2A and FIG. 2B show the expression of isocitrate dehydrogenase (IDH-1) in SK-MEL-28 melanoma cells treated with increasing concentration of Coenzyme Q10 (50 μM or 100 μM).
(§2) FIG. 3A and FIG. 3B show the effect of Coenzyme Q10 treatment (50 μM or 100 μM) on expression of ATP Citrate lyase (ACL) in SK-MEL-28 melanoma cells. Human aortic smooth muscle cells (HASMC) were used as a control.
FIG. 4A and FIG. 4B show the effect of Coenzyme Q10 on expression of p53, pl4ARF and MDM2 in SK-MEL-28 melanoma cells.
Bcl-2, Bax and Caspase 3 are pro- and anti-apoptotic markers regulating cell death pathways. A beta-actin loading control was used.

[4] = tested on: Human aortic smooth muscle cells (HASMC); experiment: Western Blot of ACL expression in normal control cells; format: cell-based; conditions: 50 μM or 100 μM
Experimental: as §2

SCC cell line (SCC-25) = experiment: Proteomic analysis of SCC cell line; format: cell-based; conditions: 100 uM CoQ10, SCC-25
Experimental: Next, a proteomic analysis of an in-vitro model of squamous cell carcinoma, SCC cell line (SCC-25), was undertaken to delineate the underlying mechanistic regulating effect of the CoQ10 compositions of the invention. Table 1, shown above and reproduced below, lists the proteins identified to have a differential response to 100 uM CoQ10 treatment in SCC cells at 6 and 24 hours.

SCC cells = experiment: Apoptosis Array gene regulation; format: cell-based; conditions: 100 uM Q10, SCC cells
Experimental: Table 3, shown above and reproduced below, lists the genes in SCC cells that are regulated by 100 uM Q10 treatment when analyzed by the Apoptosis Array.

[5] = Heat stability of CoQ10 solubilized in Polysorbate 80; format: physicochemical; conditions: 25-60% CoQ10 solubilized in Polysorbate 80, heated for several hours at 55° C.
Experimental: Coenzyme Q10 […] is a deep yellow-orange powder and is very hydrophobic with a melting point of approximately 48 degrees centigrade. The active ingredient, CoQ10 […] Cream, ubidecarenone, USP may be adversely affected by heat and light, according to the literature. […] Heating the mixture to 50-55° C. (i.e., 2-7° C. above the melting point of CoQ10) greatly speeds the solubilization of CoQ10. To manufacture the topical CoQ10 cream, two CoQ10 concentrate phases (CoQ10/Polysorbate 80 and water-lecithin-glycol-phenoxyethanol) were each heated separately to 50-55° C. with the water phase added to the solubilized CoQ10 and were mixed with high shear homogenization to form a microemulsion concentrate of CoQ10. The CoQ10 concentrate was then added to a water-in-oil (W/O) cream emulsion base to produce the final CoQ10 cream. The final concentration of CoQ10 in the cream was 3.0%. The CoQ10 3% cream is further described in International Publication No. WO2008/116135, the entire content of which is incorporated by reference in its entirety herein.

IL6 = experiment: Upregulation of inflammatory cytokines after topical CoQ10; conditions: topical application
[6] = SK-MEL-28, 50 μM or 100 μM for 12 or 24 hours
[7] = direction: Decrease, at 6 and 24 hr
[8] = direction: Decrease, at 24 hr only
[9] = direction: Increase, at 6 and 24 hr

breakdown of CoQ10 on heating [5]: no measurable breakdown
SMILES: COC1=C(OC)C(=O)C(C/C=C(\C)CC/C=C(\C)CC/C=C(\C)CC/C=C(\C)CC/C=C(\C)CC/C=C(\C)CC/C=C(\C)CC/C=C(\C)CC/C=C(\C)CCC=C(C)C)=C(C)C1=O [CoQ10, Coenzyme Q10]
cell proliferation rate [1]: dose dependent decrease
cell proliferation rate ([1]; listed as Coenzyme Q10): concentration dependent decrease
cell proliferation rate [2]: no effect
cell proliferation rate [3]: dose dependent decrease
cell proliferation rate ([3]; listed as Coenzyme Q10): concentration dependent decrease
cell proliferation rate (adult fibroblasts): no effect
expression of MDM2 (SK-MEL-28 melanoma cells; SK-MEL-28 (FIG. 4)): decrease
expression of ATP Citrate lyase (ACL) (SK-MEL-28 melanoma cells; SK-MEL-28, 50 μM or 100 μM): concentration dependent decrease
expression of isocitrate dehydrogenase (IDH-1) (SK-MEL-28 melanoma cells; SK-MEL-28, 50 μM or 100 μM): concentration dependent increase
expression of anti-apoptotic bcl-2 protein (SK-MEL-28 melanoma cells; [6]): concentration dependent decrease
expression of caspase 3 (SK-MEL-28 melanoma cells; [6]): progressive dose-dependent increase
expression of pro-apoptotic bax (SK-MEL-28 melanoma cells; [6]): concentration dependent increase
expression of ATP Citrate lyase (ACL) [4]: not observed
NM23 protein (NME1) Response (SCC cell line (SCC-25); at 24 hr): decrease at 24 hr
Keratin 1 (KRT1) Response (fold change) (SCC cell line (SCC-25); [7]): Decrease (2.3) at 6 and 24 hr fold change
Transaldolase 1 (TALDO1) Response (fold change) (SCC cell line (SCC-25); [7]): Decrease (1.5) at 6 and 24 hr fold change
Rho GDP dissociation inhibitor (GDI) alpha (ARHGDIA) Response (fold change) (SCC cell line (SCC-25); direction: Decrease, at 6 hr only): Decrease (1.5) at 6 hr only fold change
Proteasome activator subunit 3 (PSME3) Response (fold change) (SCC cell line (SCC-25); [8]): Decrease (1.3) at 24 hr only fold change
Protessome Beta 7 (PSMB7) Response (fold change) (SCC cell line (SCC-25); [8]): Decrease (1.6) at 24 hr only fold change
Heat shock 27 kDa protein 1 (HSPB1) Response (fold change) (SCC cell line (SCC-25); [9]): Increase (−1.9) at 6 and 24 hr fold change
Keratin 13 (KRT13) Response (fold change) (SCC cell line (SCC-25); [9]): Increase (−1.5) at 6 and 24 hr fold change
Keratin 14 (KRT14) Response (fold change) (SCC cell line (SCC-25); [9]): Increase (−1.6) at 6 and 24 hr fold change
NM23 protein (NME1) Response (fold change) (SCC cell line (SCC-25); printed direction: increase, at 6 hr): increase (−1.2) at 6 hr, fold change
BCL2L1 gene Regulation (SCC cells; 6 hours): Down regulated at 6 hours and
CARD6 gene Regulation (SCC cells; 6 hours): Down regulated at 6 hours.
AKT1 gene Regulation (SCC cells; 24 hours): then up regulated at 24 hours.
BAG4 gene Regulation (SCC cells; 24 hours): Up regulated at 24 hours.
BAX gene Regulation (SCC cells; 24 hours): Up regulated at 24 hours.
BCL2L1 gene Regulation (SCC cells; 24 hours): then up regulated at 24 hours.
BNIP3 gene Regulation (SCC cells; 24 hours): Down regulated at 24 hours.
CASP6 gene Regulation (SCC cells; 24 hours): Up regulated at 24 hours.
CASP7 gene Regulation (SCC cells; 24 hours): Up regulated at 24 hours.
GADD45A gene Regulation (SCC cells; 24 hours): Up regulated at 24 hours.
TP53 gene Regulation (SCC cells; 24 hours): Up regulated at 24 hours.
TP73 gene Regulation (SCC cells; 24 hours): then up regulated at 24 hours.
upregulation of inflammatory cytokines (IL6) (IL6): block the upregulation
